Each structure is given as a SMILES string.

The results in this text go back to patent publication US20250000043A1, “NON-TRANSGENIC SUNFLOWER PLANTS HAVING INCREASED TOLERANCE TO HERBICIDES” (BASF Agricultural Solutions Seed US LLC, priority 2021, published 2025).

Assay [1] deals with progeny of mutant lead LIH16358 (PPO2_F383I). The assay is described as follows: Greenhouse re-assessment of saflufenacil tolerance, mutant progeny (Example 3). The format is in vivo, Helianthus annuus. The text has this:
(§1) As it is not uncommon that in forward field mutant screening for herbicide tolerance ‘false’ tolerant plants are selected, the field candidates were reassessed in the greenhouse. Field harvested seeds of the mutant lead LIH16358 were planted in the greenhouse on Nov. 26, 2019, in Limburgerhof, Germany. The greenhouse trial had the objective to verify if the progeny of mutant lead LIH16358 would survive treatment with saflufenacil. Seeds of the susceptible wild type (HA452) line were planted in the same greenhouse trial as the susceptible reference. Saflufenacil was sprayed at 2.5 g a.i./ha on Dec. 10, 2019. The 2.5 g a.i./ha of saflufenacil corresponds to 12.5 g a.i./ha in field conditions. The final phytotoxicity evaluation in the treated plants was done on Dec. 24, 2019.
(§2) The tolerant progeny individuals of mutant lead LIH16358 produced seeds, which were planted in a follow up greenhouse trial on May 19, 2020. The plants were sprayed with 2.0 g a.i./ha of saflufenacil on Jun. 3, 2020.

Assay [2] deals with Wild Type (WT) sunflower line. The assay is described as follows: Field PPO cross-tolerance trial, wild type (Example 8). The format is in vivo. The conditions noted are these: for Phytotoxicity (%) Wild Type (WT) 6DAT / Phytotoxicity (%) Wild Type (WT) 11DAT / Phytotoxicity (%) Wild Type (WT) 14DAT: MSO 1% v/v. On the procedure: A field trial was carried out to assess PPO cross-tolerance in non-introgressed, selfed, homozygous PPO2_F4201 mutants, as well as to assess tolerance differences using increasing rates of herbicides listed in Table 5. The field trial was done in Utrera, Spain, in September of 2021.
Herbicide treatments (Table 5) were applied in the field when plants had the BBCH12-14 growth stage (2-4 leaves). The field trial design was the randomized complete block design, and 1 replication was considered due to limitation in seed availability. Two entries were used in the field trial, the WT line and the PPO2_F4201 mutant. The experimental plot consisted of 1 entry per plot and 1 row per entry.
Phytotoxicity of mutant and WT entries was recorded over time, at 6, 11 and 14 DAT, where 100% phytotoxicity indicates complete control (dead plants), and 0% phytotoxicity indicates no control or alive plants without any herbicide injury.

Assay [3] relates to susceptible wild type (HA452) line. The assay is described as follows: Greenhouse re-assessment of saflufenacil tolerance, wild type reference (Example 3). It counts as in vivo, Helianthus annuus.
Excerpt: as §1, §2

Assay [4] concerns wild type (WT) sunflower line (RHA473). The assay is described as follows: Greenhouse PPO cross-tolerance trial, wild type (Example 7). It counts as in vivo. The conditions noted are these: dose as low as 1.25 g/ha, greenhouse, MSO 1% v/v. On the procedure: In August of 2021, a greenhouse herbicide trial was carried out in Zwijnaarde, Belgium. A homozygous PPO2_F4201 sunflower seed lot (HA452-M), and a wild type (WT) sunflower line (RHA473) were used in the greenhouse trial. Sixteen homozygous PPO2_F4201 mutant plants and six WT plants were sown and treated with each herbicide. […]

`CC(C)N(C)S(=O)(=O)NC(=O)c1cc(-n2c(=O)cc(C(F)(F)F)n(C)c2=O)c(F)cc1Cl` [Saflufenacil] displayed a phytotoxicity of individuals in assay [1] (2.0 g a.i./ha, second generation progenies, 14 DAT) of at least 25%. In assay [1] (2.5 g a.i./ha, first generation progeny), the survival after treatment entry is on record as “survived saflufenacil treatment”. In assay [2] (3.125 g a.i./ha), the “Phytotoxicity (%) Wild Type (WT) 6DAT” value came out at 100%, the “Phytotoxicity (%) Wild Type (WT) 11DAT” value is listed as 100% and the “Phytotoxicity (%) Wild Type (WT) 14DAT” value stood at 100%. In assay [2] (6.25 g a.i./ha), the “Phytotoxicity (%) Wild Type (WT) 6DAT” value was 100%, the “Phytotoxicity (%) Wild Type (WT) 11DAT” value came out at 100% and the “Phytotoxicity (%) Wild Type (WT) 14DAT” value was determined as 100%. For the same compound, the “phytotoxicity in the WT background” value in assay [2] (saflufenacil 3.125 and 6.25 g a.i./ha) is given as 100%. The phytotoxicity in assay [3] (2.0 g a.i./ha, 14 DAT) is recorded as 100%. For the same compound, the “control of wild type reference plants” value in assay [3] (2.5 g a.i./ha) was “completely controlled and dead”. Further, the “kill of WT plants” value in assay [4] is recorded as “all killed”.
